According to US11530244B2, “Cyclic polypeptides for PCSK9 inhibition” (priority 2018, dated 2022):
pIC50: −log10 of the molar value. Starred links: 1 amine or outer side, 2 acyl side, 3 side chain; linkers in the order of their positions; H or OH if unused. Positions of bridges follow the written chain, without caps; N, C: chain ends. Non-standard residues stand in square brackets, D forms with d. Residues, ends and D or L forms follow the SMILES beside them. X24 = O=C(CCCCSc1c(F)c(F)c(SCCN[*:1])c(F)c1F)[*:2]; X25 = O=C([C@H](Cc1cccc(OCC=[*:3])c1)N[*:1])[*:2]; X26 = O=C([C@@H]1[C@@H](OCC=[*:3])CCN1[*:1])[*:2]; Phe(4-COOH) = N[C@@H](Cc1ccc(C(=O)O)cc1)C(=O)O; Trp(5-F) = N[C@@H](Cc1c[nH]c2ccc(F)cc12)C(=O)O; Trp(6-F) = N[C@@H](Cc1c[nH]c2cc(F)ccc12)C(=O)O; Pyridine(3,5-bisCH2) = c1ncc(C[*:2])cc1C[*:1]; X4 = O=C(CCSCc1cccc(CSCCN[*:1])c1)[*:2]; mXylylene = c1cc(C[*:1])cc(C[*:2])c1; AEF = NCCOc1ccc(C[C@H](N)C(=O)O)cc1; X7 = O=C(Cc1ccc(CN[*:1])cc1)[*:2]; X22 = Oc1cc(C[*:1])cc(C[*:2])c1; αMeP = C[C@@]1(C(=O)O)CCCN1; dDab = NCC[C@@H](N)C(=O)O; Ahx = NCCCCCC(=O)O; Mpa = O=C(O)CCS

What was measured:
[1] = target: human PCSK9 / human LDLR EGFa domain interaction (Homo sapiens (Human), UniProt Q8NBP7); assay: TR-FRET assay of inhibition of the PCSK9-LDLR protein-protein interaction; format: binding; details: TR-FRET, 20 nM human PCSK9, 20 nM human LDLR EGFa domain, 2 hours room temperature; read-out: IC50
Chain of human PCSK9 / human LDLR EGFa domain interaction (Q8NBP7 153-692): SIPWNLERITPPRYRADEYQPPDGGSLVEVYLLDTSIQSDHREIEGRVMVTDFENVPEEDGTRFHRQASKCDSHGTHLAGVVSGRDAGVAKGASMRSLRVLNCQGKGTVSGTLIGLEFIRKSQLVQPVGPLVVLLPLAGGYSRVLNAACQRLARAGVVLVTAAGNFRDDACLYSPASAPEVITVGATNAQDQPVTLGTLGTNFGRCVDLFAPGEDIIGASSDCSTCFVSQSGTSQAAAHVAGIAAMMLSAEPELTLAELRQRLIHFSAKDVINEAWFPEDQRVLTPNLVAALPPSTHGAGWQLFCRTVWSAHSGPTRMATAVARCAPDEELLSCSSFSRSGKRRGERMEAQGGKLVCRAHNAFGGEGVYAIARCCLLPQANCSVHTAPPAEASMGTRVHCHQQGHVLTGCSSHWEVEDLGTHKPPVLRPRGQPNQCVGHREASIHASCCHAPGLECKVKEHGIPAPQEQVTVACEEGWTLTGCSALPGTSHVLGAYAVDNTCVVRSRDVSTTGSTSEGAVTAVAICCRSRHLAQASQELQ
Chain of human PCSK9 / human LDLR EGFa domain interaction (Q8NBP7 31-152 partner): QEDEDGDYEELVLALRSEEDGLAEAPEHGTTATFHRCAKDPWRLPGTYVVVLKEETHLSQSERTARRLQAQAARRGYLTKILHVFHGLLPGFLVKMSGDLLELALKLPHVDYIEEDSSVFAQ
How it was run: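 Biotinylated PCSK9 (20 nM) and His-tagged LDLR EGFa domain (20 nM) were incubated 2 h at room temperature with 5 nM Ulight-streptavidin and 5 nM Eu-anti-His in HEPES/NaCl/CaCl2 buffer with 0.01% BSA and 0.01% P20. TR-FRET was read; half-maximal inhibitory concentrations came from 4-parameter dose-response fits.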

[2] = target: PCSK9 (Homo sapiens (Human), UniProt Q8NBP7); assay: PCSK9 Alexa FRET Standard assay (displacement of AlexaFluor647 tagged cyclic peptide Reagent A); format: binding; details: PCSK9 Alexa FRET Standard assay, 0.5 nM PCSK9, 20 nM AF cyclic peptide Reagent A; read-out: IC50
Chain of PCSK9 (Q8NBP7 153-692): as the sequence (Q8NBP7 153-692) above
How it was run: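 TR-FRET displacement: 0.5 nM biotinylated PCSK9 with 1.25 nM Strep-Eu and 20 nM AlexaFluor-tagged cyclic peptide (final) in 50 mM HEPES pH 7.4, 0.15 M NaCl, 5 mM CaCl2, 0.01% BSA, 0.01% P20, ≥2 h at room temperature. IC50 from sigmoidal fit, converted to Ki via peptide KD; falling Eu counts flagged false positives.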

SMILES	pIC50 [1]	pIC50 [2]
COc1ccc(C[C@@H]2NC(=O)[C@H](Cc3cnc[nH]3)NC(=O)[C@H](CC(=O)O)NC(=O)[C@H](Cc3c[nH]c4ccc(F)cc34)NC(=O)[C@H](Cc3c[nH]c4ccc(F)cc34)NC(=O)[C@@H](C)NC(=O)[C@H](CCCCN)NC(=O)[C@@H](NC(C)=O)CCCc3cn(nn3)-c3ccc(cc3)C[C@@H](C(N)=O)NC(=O)[C@]3(C)CCCN3C2=O)cc1 [Compound 353]	4.30 to 4.68	4.30 to 4.68
COc1ccc(C[C@@H]2NC(=O)[C@H]([C@@H](C)O)NC(=O)[C@@H]3CCCN3C(=O)[C@H](Cc3c[nH]c4ccc(F)cc34)NC(=O)[C@H](Cc3c[nH]c4ccc(F)cc34)NC(=O)[C@@H](C)NC(=O)[C@H](CCCCN)NC(=O)CCSCc3cc(O)cc(c3)CSC[C@@H](C(N)=O)NC(=O)[C@]3(C)CCCN3C2=O)cc1 [Compound 060] ([Mpa]K[dA][Trp(5-F)][Trp(5-F)]PTY(Me)[αMeP]C-NH2; linker 1-10 via X22)	4.30 to 4.68	4.30 to 4.68
COc1ccc(C[C@@H]2NC(=O)[C@H]([C@@H](C)O)NC(=O)[C@@H]3CCCN3C(=O)[C@H](Cc3c[nH]c4ccc(F)cc34)NC(=O)[C@H](Cc3c[nH]c4ccc(F)cc34)NC(=O)[C@@H](C)NC(=O)[C@H](CCCCN)NC(=O)CCSCc3cncc(c3)CSC[C@@H](C(N)=O)NC(=O)[C@]3(C)CCCN3C2=O)cc1 [Compound 058] ([Mpa]K[dA][Trp(5-F)][Trp(5-F)]PTY(Me)[αMeP]C-NH2; linker 1-10 via Pyridine(3,5-bisCH2))	7.00 to 10.00	7.00 to 9.96
C[C@@]12CCCN1C(=O)[C@H](Cc1ccc(O)cc1)NC(=O)[C@H](Cc1cnc[nH]1)NC(=O)[C@H](CC(=O)O)NC(=O)[C@H](Cc1c[nH]c3cc(F)ccc13)NC(=O)[C@H](Cc1c[nH]c3ccc(F)cc13)NC(=O)CNC(=O)CCCCCNC(=O)c1ccc(cc1)C[C@@H](C(N)=O)NC2=O [Compound 313] ([Ahx]G[Trp(5-F)][Trp(6-F)]DHY[αMeP][Phe(4-COOH)]-NH2; lactam N-9)	4.92 to 6.00	4.92 to 6.00
COc1ccc(C[C@@H]2NC(=O)[C@H]([C@@H](C)O)NC(=O)[C@@H]3[C@@H]4CCN3C(=O)[C@H](Cc3c[nH]c5ccc(F)cc35)NC(=O)[C@H](Cc3cccc(c3)OC/C=C/CO4)NC(=O)[C@@H](C)NC(=O)[C@H](C)NC(=O)CCSCc3cccc(c3)CSCCNC(=O)[C@]3(C)CCCN3C2=O)cc1 [Compound 516] (cyclo(A[dA][X25][Trp(5-F)][X26]TY(Me)[αMeP][X4]); staple (E) 3-5)	7.00 to 10.00	7.00 to 9.96
COc1ccc(C[C@@H]2NC(=O)[C@H](Cc3cnc[nH]3)NC(=O)[C@H](CC(=O)O)NC(=O)[C@H](Cc3c[nH]c4ccc(F)cc34)NC(=O)[C@H](Cc3c[nH]c4ccc(F)cc34)NC(=O)[C@@H](C)NC(=O)CCCCSc3c(F)c(F)c(c(F)c3F)SCCNC(=O)[C@]3(C)CCCN3C2=O)cc1 [Compound 483] (cyclo(DHY(Me)[αMeP][X24][dA][Trp(5-F)][Trp(5-F)]))	7.00 to 10.00	7.00 to 9.96

The next lines start with the values.

pIC50 [1]	pIC50 [2]	SMILES
6.00 to 7.00	6.00 to 7.00	NCCCC[C@@H]1NC(=O)CCSCc2cccc(c2)CSC[C@@H](C(N)=O)NC(=O)[C@@H]2CCCN2C(=O)[C@H](Cc2ccc(OCCN)cc2)NC(=O)[C@H](Cc2c[nH]cn2)NC(=O)[C@H](CC(=O)O)NC(=O)[C@H](Cc2c[nH]c3ccc(F)cc23)NC(=O)[C@H](Cc2c[nH]c3ccc(F)cc23)NC(=O)CNC1=O [Compound 265] ([Mpa]KG[Trp(5-F)][Trp(5-F)]DH[AEF]PC-NH2; linker 1-10 via mXylylene)
6.00 to 7.00	6.00 to 7.00	C[C@@]12CCCN1C(=O)[C@H](Cc1ccc(O)cc1)NC(=O)[C@H](Cc1cnc[nH]1)NC(=O)[C@H](CC(=O)O)NC(=O)[C@H](Cc1c[nH]c3ccc(F)cc13)NC(=O)[C@H](Cc1c[nH]c3ccc(F)cc13)NC(=O)CNC(=O)[C@@H](CCN)NC(=O)CCSCc1cccc(c1)CSC[C@@H](C(N)=O)NC2=O [Compound 355] ([Mpa][dDab]G[Trp(5-F)][Trp(5-F)]DHY[αMeP]C-NH2; linker 1-10 via mXylylene)
7.00 to 10.00	6.00 to 7.00	CC(C)C[C@H]1NC(=O)[C@H](CCCCN)NC(=O)CCSCc2cccc(c2)CSC[C@@H](C(N)=O)NC(=O)[C@]2(C)CCCN2C(=O)[C@H](Cc2ccc(O)cc2)NC(=O)[C@H](Cc2cnc[nH]2)NC(=O)[C@H](CC(=O)O)NC(=O)[C@H](Cc2c[nH]c3ccc(F)cc23)NC(=O)[C@H](Cc2c[nH]c3ccc(F)cc23)NC1=O [Compound 373] ([Mpa]K[dL][Trp(5-F)][Trp(5-F)]DHY[αMeP]C-NH2; linker 1-10 via mXylylene)
6.00 to 7.00	4.92 to 6.00	COc1ccc(C[C@@H]2NC(=O)[C@H](Cc3cnc[nH]3)NC(=O)[C@H](CC(=O)O)NC(=O)[C@H](Cc3c[nH]c4ccc(F)cc34)NC(=O)[C@H](Cc3c[nH]c4ccc(F)cc34)NC(=O)[C@@H](C)NC(=O)Cc3ccc(cc3)CNC(=O)C[C@@H](C(N)=O)NC(=O)[C@]3(C)CCCN3C2=O)cc1 [Compound 403] ([X7][dA][Trp(5-F)][Trp(5-F)]DHY(Me)[αMeP]D-NH2; lactam N-9)
